Results: patent publication US12528784B2, “Alkynyl-(heteroaryl)-carboxamide HCN1 inhibitors” (Hoffmann-La Roche Inc., priority 2019, dated 2026)

How the values were obtained:
Assay type in all cases: cell-based
HCN1 = biological target: T1, HCN1 (Homo sapiens, UniProt O60741); assay: HCN1 automated patch clamp current inhibition assay (Ionworks Barracuda); details: HEK-293 cells stably expressing HCN1; current inhibition during a hyperpolarizing pulse of -100 mV
T1 construct: expressed in transfected cells
T1 sequence (O60741 1-890): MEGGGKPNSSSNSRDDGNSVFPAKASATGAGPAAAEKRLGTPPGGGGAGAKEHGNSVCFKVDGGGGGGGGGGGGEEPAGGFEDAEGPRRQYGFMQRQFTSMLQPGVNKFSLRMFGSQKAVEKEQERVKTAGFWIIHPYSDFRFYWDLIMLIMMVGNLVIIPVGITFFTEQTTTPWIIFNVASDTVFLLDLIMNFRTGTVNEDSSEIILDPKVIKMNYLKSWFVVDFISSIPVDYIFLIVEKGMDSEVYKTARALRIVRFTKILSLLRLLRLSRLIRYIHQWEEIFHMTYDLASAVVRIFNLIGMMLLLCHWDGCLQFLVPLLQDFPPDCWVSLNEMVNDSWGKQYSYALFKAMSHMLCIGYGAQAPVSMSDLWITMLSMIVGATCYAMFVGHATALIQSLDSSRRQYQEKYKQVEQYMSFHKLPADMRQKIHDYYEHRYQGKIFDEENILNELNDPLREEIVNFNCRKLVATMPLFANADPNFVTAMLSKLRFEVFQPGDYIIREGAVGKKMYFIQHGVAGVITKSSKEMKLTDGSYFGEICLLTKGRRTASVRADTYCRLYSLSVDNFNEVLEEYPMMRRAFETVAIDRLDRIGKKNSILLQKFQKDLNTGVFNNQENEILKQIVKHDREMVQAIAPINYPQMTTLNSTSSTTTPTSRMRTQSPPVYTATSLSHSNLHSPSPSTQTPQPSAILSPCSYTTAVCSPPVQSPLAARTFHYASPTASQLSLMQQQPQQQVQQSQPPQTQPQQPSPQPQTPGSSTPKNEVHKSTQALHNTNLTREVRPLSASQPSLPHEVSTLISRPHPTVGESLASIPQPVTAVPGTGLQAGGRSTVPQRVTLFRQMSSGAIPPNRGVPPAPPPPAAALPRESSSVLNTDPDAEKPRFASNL
Description: (§1) In vitro, high-throughput cellular electrophysiology was employed to detect voltage- and use-dependence of compounds in single concentration screening and IC50 determination for library and medicinal chemistry profiling compounds in 384 well plates.
(§2) Cell cultures were maintained in DMEM/F12 cell growth media containing FBS and appropriate antibiotics at 37° C., 5% CO2 for a maximum of 20 passages. At a time point of 40-72 hours prior to assay, the expression of HCN protein in the cells is induced by addition of tetracyclin. Cells may be incubated at 27° C. for 2-24 hours of induction. […] Cells were harvested at 80% confluency and resuspended in extracellular buffer and added to wells. A freshly prepared Escin solution was added to intracellular buffer and applied to establish whole cell recording via perforated patch clampling by APC.
(§3) Currents through activated channels were measured directly by APC by employing hyperpolarizing voltage steps. The activation window was increased and stabilized by the addition of cell permeable Br-cAMP. Baselines were established for both use- and voltage-dependence protocols using a −30 mV holding potential and multiple test pulses at −100 mV or by 20 mV steps from −120 to 0 mV, respectively. Test compounds were added after baseline recordings followed by a 10 min incubation, voltage-dependency protocol recording, and use-dependency recording. Data was corrected for baseline and rundown (well based) and normalized for % inhibition (plate based). Five previously reported HCN inhibitors of varying potencies and selectivities and zatebradine were used for run to run and plate to plate quality controls. […] Percent inhibition was analysed at −80, −100, −120 mV of the voltage-dependency protocol and at pulse 0 and 50 of the use-dependency protocols. Selectivity was assessed against HCN2, HCN3, and HCN4 overexpressing cell lines using similar methods. As HCN4 has a slower activation than the other HCN channels, activation was extended to achieve steady state activation.

HCN2 = biological target: T2, HCN2 (Homo sapiens, UniProt Q9UL51); assay: HCN2 automated patch clamp current inhibition assay (Ionworks Barracuda); details: HEK-293 cells stably expressing HCN2; current inhibition during a hyperpolarizing pulse of -100 mV
T2 construct: expressed in transfected cells
T2 sequence (Q9UL51 1-889): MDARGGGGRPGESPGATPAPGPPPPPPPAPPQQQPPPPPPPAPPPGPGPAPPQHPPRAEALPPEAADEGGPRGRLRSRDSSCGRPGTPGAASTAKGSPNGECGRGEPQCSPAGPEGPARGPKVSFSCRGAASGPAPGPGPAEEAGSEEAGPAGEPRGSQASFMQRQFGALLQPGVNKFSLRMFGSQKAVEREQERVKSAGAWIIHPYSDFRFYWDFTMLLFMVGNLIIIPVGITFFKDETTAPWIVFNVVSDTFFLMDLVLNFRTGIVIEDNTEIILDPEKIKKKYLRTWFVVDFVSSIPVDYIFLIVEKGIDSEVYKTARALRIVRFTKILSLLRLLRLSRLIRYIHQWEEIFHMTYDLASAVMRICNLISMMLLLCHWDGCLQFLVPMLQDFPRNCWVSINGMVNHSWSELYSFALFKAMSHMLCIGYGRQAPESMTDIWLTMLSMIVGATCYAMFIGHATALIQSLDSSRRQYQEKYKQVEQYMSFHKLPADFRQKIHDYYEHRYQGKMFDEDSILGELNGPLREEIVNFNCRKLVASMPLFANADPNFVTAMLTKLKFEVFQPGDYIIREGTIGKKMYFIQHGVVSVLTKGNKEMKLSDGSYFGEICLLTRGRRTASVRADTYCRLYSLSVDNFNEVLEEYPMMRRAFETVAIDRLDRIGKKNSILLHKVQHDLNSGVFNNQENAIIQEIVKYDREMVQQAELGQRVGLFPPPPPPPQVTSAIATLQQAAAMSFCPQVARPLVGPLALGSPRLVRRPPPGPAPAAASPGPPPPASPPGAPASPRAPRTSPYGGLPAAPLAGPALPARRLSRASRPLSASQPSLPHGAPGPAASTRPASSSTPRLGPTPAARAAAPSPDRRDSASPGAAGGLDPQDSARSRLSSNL
Description: as §1, §2, §3

HCN4 = biological target: T3, HCN4 (Homo sapiens, UniProt Q9Y3Q4); assay: HCN4 automated patch clamp current inhibition assay (Ionworks Barracuda); details: HEK-293 cells stably expressing HCN4; current inhibition during a hyperpolarizing pulse of -100 mV
T3 construct: expressed in transfected cells
T3 sequence (Q9Y3Q4 1-1203): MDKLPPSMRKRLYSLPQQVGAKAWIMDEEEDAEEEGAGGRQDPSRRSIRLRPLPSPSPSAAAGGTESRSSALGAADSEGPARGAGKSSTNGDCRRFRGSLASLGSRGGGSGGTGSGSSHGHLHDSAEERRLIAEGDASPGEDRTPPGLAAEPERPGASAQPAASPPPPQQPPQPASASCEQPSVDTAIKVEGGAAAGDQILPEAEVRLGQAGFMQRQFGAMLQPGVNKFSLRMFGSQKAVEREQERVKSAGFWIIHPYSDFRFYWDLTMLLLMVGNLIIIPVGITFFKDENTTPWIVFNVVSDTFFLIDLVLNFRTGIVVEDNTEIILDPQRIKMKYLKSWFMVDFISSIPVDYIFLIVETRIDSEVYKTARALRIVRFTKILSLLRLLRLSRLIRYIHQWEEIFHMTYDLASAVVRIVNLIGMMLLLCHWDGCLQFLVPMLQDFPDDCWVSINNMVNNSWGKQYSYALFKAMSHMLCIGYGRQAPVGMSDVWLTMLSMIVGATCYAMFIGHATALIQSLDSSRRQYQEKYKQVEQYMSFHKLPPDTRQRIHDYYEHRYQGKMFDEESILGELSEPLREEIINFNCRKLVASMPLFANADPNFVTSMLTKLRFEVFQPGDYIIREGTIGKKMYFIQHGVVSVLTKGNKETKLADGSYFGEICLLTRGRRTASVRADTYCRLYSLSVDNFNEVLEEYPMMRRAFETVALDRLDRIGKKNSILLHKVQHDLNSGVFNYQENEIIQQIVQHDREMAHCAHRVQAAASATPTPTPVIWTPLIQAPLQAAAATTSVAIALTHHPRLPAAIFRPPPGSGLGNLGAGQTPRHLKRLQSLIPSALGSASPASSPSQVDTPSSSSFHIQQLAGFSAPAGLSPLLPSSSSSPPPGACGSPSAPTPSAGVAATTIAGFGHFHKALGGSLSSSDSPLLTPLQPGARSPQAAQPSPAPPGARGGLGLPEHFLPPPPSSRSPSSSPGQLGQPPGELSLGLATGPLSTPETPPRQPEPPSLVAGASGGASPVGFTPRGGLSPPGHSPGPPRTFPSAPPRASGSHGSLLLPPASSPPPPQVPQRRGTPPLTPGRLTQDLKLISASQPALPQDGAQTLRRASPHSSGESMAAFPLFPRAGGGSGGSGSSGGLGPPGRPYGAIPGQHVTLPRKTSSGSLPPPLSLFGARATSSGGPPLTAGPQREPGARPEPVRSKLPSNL
Description: as §1, §2, §3

Row | SMILES | IC50 (HCN1) | IC50 (HCN2) | IC50 (HCN4)
1 | Cc1ccc(-n2c(C(N)=O)nc(C#Cc3cc(Cl)ncc3F)c2C)cn1 [Example 7, 4-((2-Chloro-5-fluoropyridin-4-yl)ethynyl)-5-methyl-1-(6-methylpyridin-3-yl)-1H-imidazole-2-carboxamide] | 0.297 µM | > 40 µM | > 40 µM
2 | Cc1ccc(-n2c(C(N)=O)nc(C#Cc3cccnc3)c2C)cn1 [Example 20, 5-Methyl-1-(6-methyl-3-pyridyl)-4-[2-(3-pyridyl)ethynyl]imidazole-2-carboxamide] | 8.59 µM | > 40 µM | > 40 µM
3 | Cc1ccc(-n2c(C(N)=O)nc(C#Cc3cncc(Cl)c3)c2C)cn1 [Example 17, 4-[2-(5-Chloro-3-pyridyl)ethynyl]-5-methyl-1-(6-methyl-3-pyridyl)imidazole-2-carboxamide] | 3.02 µM | > 40 µM | > 40 µM
4 | Cc1ccc(-n2c(C(N)=O)nc(C#Cc3ccnc(C)c3)c2C)cn1 [Example 22, 5-Methyl-1-(6-methylpyridin-3-yl)-4-((2-methylpyridin-4-yl)ethynyl)-1H-imidazole-2-carboxamide] | 6.03 µM | > 40 µM | > 40 µM
5 | Cc1ccc(-n2c(C(N)=O)nc(C#Cc3ccnc(Cl)n3)c2C)cn1 [Example 15, 4-((2-Chloropyrimidin-4-yl)ethynyl)-5-methyl-1-(6-methylpyridin-3-yl)-1H-imidazole-2-carboxamide] | 2.39 µM | > 40 µM | > 40 µM
6 | Cc1ccc(-n2c(C(N)=O)nc(C#Cc3cc(Cl)ncn3)c2C)cn1 [Example 19, 4-((6-Chloropyrimidin-4-yl)ethynyl)-5-methyl-1-(6-methylpyridin-3-yl)-1H-imidazole-2-carboxamide] | 6.47 µM |  | > 40 µM
7 | Cc1ccc(-n2c(C(N)=O)nc(C#Cc3ccnc(F)c3)c2C)cn1 [Example 12, 4-[2-(2-Fluoro-4-pyridyl)ethynyl]-5-methyl-1-(6-methyl-3-pyridyl)imidazole-2-carboxamide] | 1.01 µM | > 40 µM | > 40 µM
8 | Cc1c(C#Cc2ccnc(Cl)c2)nc(C(N)=O)n1-c1cccc(Cl)c1 [Example 40, 1-(3-Chlorophenyl)-4-((2-chloropyridin-4-yl)ethynyl)-5-methyl-1H-imidazole-2-carboxamide] | 3.16 µM | > 40 µM | > 40 µM
9 | Cc1c(Cl)cccc1C#Cc1nc(C(N)=O)n(-c2cccnc2)c1C [Example 30, 4-[2-(3-Chloro-2-methyl-phenyl)ethynyl]-5-methyl-1-(3-pyridyl)imidazole-2-carboxamide] | 0.087 µM |  | > 40 µM
10 | Cc1ccc(-n2c(C(N)=O)nc(C#Cc3ccc(Cl)cc3)c2C)cn1 [Example 9, 4-[2-(4-Chlorophenyl)ethynyl]-5-methyl-1-(6-methyl-3-pyridyl)imidazole-2-carboxamide] | 0.518 µM | > 40 µM | > 40 µM
11 | Cc1ccc(-n2c(C(N)=O)nc(C#Cc3ccnc(Cl)c3C)c2C)nn1 [Example 24, 4-[2-(2-Chloro-3-methyl-4-pyridyl)ethynyl]-5-methyl-1-(6-methylpyridazin-3-yl)imidazole-2-carboxamide] | 0.15 µM | > 40 µM | > 40 µM
12 | Cc1ccc(-n2c(C(N)=O)nc(C#Cc3ccnc(C(F)(F)F)c3)c2C)cn1 [Example 11, 5-Methyl-1-(6-methylpyridin-3-yl)-4-((2-(trifluoromethyl)pyridin-4-yl)ethynyl)-1H-imidazole-2-carboxamide] | 0.833 µM | > 40 µM | > 40 µM
13 | Cc1ccc(-n2c(C(N)=O)nc(C#Cc3ccncc3F)c2C)cn1 [Example 16, 4-((3-Fluoropyridin-4-yl)ethynyl)-5-methyl-1-(6-methylpyridin-3-yl)-1H-imidazole-2-carboxamide] | 2.4 µM | > 40 µM | > 40 µM
